Measurements as given in patent US9359322B2, “C-linked glucuronide of N-(4-hydroxybenzyl) retinone, analogs thereof, and methods of using the same to inhibit neoplastic cell growth” (Wisconsin Alumni Research Foundation, priority 2005, dated 2016).

Assays:
RARβ = target: T1, RARβ (Homo sapiens, UniProt P10826); assay: Nuclear retinoid receptor binding assay, competition with [3H]all-trans RA; conditions: FIG. 3A
T1 sequence (P10826 1-455): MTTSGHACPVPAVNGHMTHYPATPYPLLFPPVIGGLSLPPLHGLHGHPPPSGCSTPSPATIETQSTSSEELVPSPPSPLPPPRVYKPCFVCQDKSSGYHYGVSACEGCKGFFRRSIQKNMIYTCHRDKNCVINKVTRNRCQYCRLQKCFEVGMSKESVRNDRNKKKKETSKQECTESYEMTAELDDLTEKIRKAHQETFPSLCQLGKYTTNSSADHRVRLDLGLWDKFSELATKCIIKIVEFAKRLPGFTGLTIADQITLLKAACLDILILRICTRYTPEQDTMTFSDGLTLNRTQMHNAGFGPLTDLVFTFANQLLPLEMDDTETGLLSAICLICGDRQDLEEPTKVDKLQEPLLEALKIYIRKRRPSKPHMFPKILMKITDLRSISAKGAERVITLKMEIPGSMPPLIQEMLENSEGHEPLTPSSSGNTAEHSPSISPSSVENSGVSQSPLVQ
Description: (§1) Nuclear Retinoid Receptor Binding Assay. Competition of 3 and 7 and 4-HBRCGlucose with [^3H]-all-trans-RA (4.2-4.6 nM) for binding to RARβ and RARγ and with [^3H]-9-cis RA (1.9 nM) for binding to RXRγ was determined using an in vitro ligand binding assay.^41, 42 [^3H]-all-trans-RA (40.5 Ci/mmole) or [^3H]-9-cis-RA (69.4 Ci/mmole) was added to receptor-containing extracts in the absence and presence of increasing concentrations of competing ligands at 4° C. for 3 hr. A hydroxylapatite (HAP) assay was used to separate ligand bound to receptor from that free in solution, and the radioactivity associated with the HAP pellet was measured by scintillation counting.

RARγ = target: T2, RARγ (Homo sapiens, UniProt P13631); assay: as above; conditions: FIG. 3B
T2 sequence (P13631 1-454): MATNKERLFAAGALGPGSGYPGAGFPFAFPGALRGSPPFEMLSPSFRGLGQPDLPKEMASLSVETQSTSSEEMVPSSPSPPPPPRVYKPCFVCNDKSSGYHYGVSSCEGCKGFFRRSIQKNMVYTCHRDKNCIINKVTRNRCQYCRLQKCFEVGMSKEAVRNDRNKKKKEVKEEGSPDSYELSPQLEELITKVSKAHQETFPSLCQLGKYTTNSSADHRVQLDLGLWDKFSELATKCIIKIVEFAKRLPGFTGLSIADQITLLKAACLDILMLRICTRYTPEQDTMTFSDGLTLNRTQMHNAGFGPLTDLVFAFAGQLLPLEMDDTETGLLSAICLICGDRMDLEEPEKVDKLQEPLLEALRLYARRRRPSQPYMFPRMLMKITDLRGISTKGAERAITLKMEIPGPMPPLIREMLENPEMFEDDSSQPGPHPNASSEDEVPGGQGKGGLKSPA
Description: as §1

RARα = target: T3, RARα (Homo sapiens, UniProt P10276); assay: Nuclear retinoid receptor binding assay; conditions: 4-HBRCG up to 10^−4.5 M; data not shown
T3 sequence (P10276 1-462): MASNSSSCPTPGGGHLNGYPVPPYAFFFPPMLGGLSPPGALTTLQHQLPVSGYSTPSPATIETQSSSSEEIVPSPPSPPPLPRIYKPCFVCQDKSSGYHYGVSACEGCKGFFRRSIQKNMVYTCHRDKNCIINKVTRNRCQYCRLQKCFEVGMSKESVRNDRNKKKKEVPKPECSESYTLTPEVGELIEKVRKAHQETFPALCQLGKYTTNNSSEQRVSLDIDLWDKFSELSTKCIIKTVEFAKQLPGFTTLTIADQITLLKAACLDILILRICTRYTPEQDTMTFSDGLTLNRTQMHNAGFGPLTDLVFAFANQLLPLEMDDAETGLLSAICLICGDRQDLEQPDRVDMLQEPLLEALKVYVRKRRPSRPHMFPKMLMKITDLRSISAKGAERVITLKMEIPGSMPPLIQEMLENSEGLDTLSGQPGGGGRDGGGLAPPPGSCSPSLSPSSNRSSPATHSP

RXRγ = target: T4, RXRγ (Homo sapiens, UniProt P48443); assay: Nuclear retinoid receptor binding assay, competition with [3H]9-cis RA; conditions: 4-HBRCG up to 10^−4.5 M; data not shown
T4 sequence (P48443 1-463): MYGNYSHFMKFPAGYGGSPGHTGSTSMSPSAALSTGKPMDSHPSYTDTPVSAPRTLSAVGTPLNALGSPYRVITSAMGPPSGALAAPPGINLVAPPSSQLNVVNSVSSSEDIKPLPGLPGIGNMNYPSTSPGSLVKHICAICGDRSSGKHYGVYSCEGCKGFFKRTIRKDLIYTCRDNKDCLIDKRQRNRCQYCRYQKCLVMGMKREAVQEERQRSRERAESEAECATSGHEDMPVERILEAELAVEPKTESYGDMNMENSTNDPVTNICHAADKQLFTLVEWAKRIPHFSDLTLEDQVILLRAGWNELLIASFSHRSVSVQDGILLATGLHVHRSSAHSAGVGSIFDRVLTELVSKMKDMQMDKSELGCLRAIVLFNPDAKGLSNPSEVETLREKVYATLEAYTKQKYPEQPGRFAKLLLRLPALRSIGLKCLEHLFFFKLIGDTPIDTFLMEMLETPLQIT
Description: as §1

[1] = test system: MCF-7 human breast cancer cells; assay: Growth inhibition of MCF-7 human breast cancer cells; assay type: cell-based; conditions: 10^−5 M, 8-day period
Description: Inhibition of MCF-7 human breast cancer cell growth over an 8-day period was used as a means to assess the activity of 4-HBRCG and the analog 4-HBRCGlucose.
Growth inhibition of MCF-7 human breast cancer cells. MCF-7 cells were obtained from the American Type Culture Collection, Manassas, Va. They were maintained in DMEM medium supplemented with 4 g/L glucose, 3.7 g/L sodium bicarbonate and 10% heat-inactivated fetal calf serum. Cells were passaged into 12-well plates, cultured for 24 hours, after which time they were dosed with vehicle (0.2% ethanol) or retinoids; medium was changed and fresh vehicle or retinoids were added daily. Cells were harvested and the number of live cells was assessed using fluorescein diacetate, which yields a fluorescent product upon cleavage by metabolically active cells. Using fluorescent microscopy, at least 200 cells/well were counted with a hemacytometer.

CC1=C(/C=C/C(C)=C/C=C/C(C)=C/C(=O)Cc2ccc(C[C@@H]3O[C@H](CO)[C@@H](O)[C@H](O)[C@H]3O)cc2)C(C)(C)CCC1 [4-HBRCGlucose, 2,6-Anhydro-7-deoxy-7-[4-(retinoylmethyl)-phenyl]-D-glycero-D-gulo-heptinol] was tested, and the “Binding to RARβ” value (RARβ) was “binds poorly”, the “Binding to RARγ” value (RARγ) was “binds poorly” and the “Binding to RARα” value (RARα) was “binds poorly”. The “Competition for [3H]9-cis RA binding to RXR” value (RXRγ) was “binds poorly”, the “State of MCF-7 cells at end of assay” value [1] was “the majority of the MCF-7 cells were dead at the end of the assay” and the “Effect on number of live MCF-7 cells” value ([1]; FIG. 5) was “reduction in the number of live cells”.
